PubChem BioAssay (NCI)
“And” between values parts separate entries of the source, which are not always exact repeats. Equal entries are not always repeated.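 Method: 48-hour compound exposure of cells in 96-well plates, five concentrations, linear interpolation of endpoints. Here, GI50 denotes the concentration required for 50% inhibition of growth. Definition used: TGI = concentration required for complete inhibition of growth.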

Experiments:
Assay in all cases: NCI tumour cell line growth inhibition, 48 h
BT-549 breast = tested on: BT-549 breast
DU-145 prostate = tested on: DU-145 prostate
T-47D breast = tested on: T-47D breast
DLD-1 colon = tested on: DLD-1 colon
KM20L2 colon = tested on: KM20L2 colon
SNB-78 CNS = tested on: SNB-78 CNS
MDA-N = tested on: MDA-N
DMS 273 small cell lung = tested on: DMS 273 small cell lung
RXF-631 renal = tested on: RXF-631 renal

| SMILES | GI50 (BT-549 breast) | TGI (BT-549 breast) | GI50 (DU-145 prostate) | TGI (DU-145 prostate) | GI50 (T-47D breast) | TGI (T-47D breast) | TGI (DLD-1 colon) [µM] | TGI (KM20L2 colon) [µM] | TGI (SNB-78 CNS) [µM] | TGI (MDA-N) [µM] | TGI (DMS 273 small cell lung) [µM] | TGI (RXF-631 renal) [µM] |
| --- | --- | --- | --- | --- | --- | --- | --- | --- | --- | --- | --- | --- |
| COc1ccc(-c2ccc(-c3ccc(C(=N)N)o3)o2)cc1 | 4.55 µM | 16.9 µM | 1.91 µM | 4.86 µM | 1.53 µM | 4.07 µM | – | – | – | – | – | – |
| O=C1c2ccccc2-c2c1c1ccccc1c(=O)n2CCCn1ccnc1 | 3.36 µM | > 100 µM | 1.41 µM | 6.94 µM | 3.28 µM | > 100 µM | – | – | – | – | – | – |
| CCNC(=O)O[C@H]1CN[C@H](C#Cc2cc3ncnc(Nc4ccc(OCc5cccc(F)c5)c(Cl)c4)c3s2)C1 | 3.89 µM | 9.38 µM | 4.72 µM | > 25 µM | 1.49 µM | > 25 µM | – | – | – | – | – | – |
| Cc1cnc(C(=O)Nc2nc3ccc(S(=O)(=O)Nc4ccc(C5(C(F)(F)F)CC5)cc4)cc3[nH]2)cn1 | 0.965 µM | 12.7 µM | 0.357 µM | 2.23 µM | 0.596 µM | 17.2 µM | – | – | – | – | – | – |
| OCC#Cc1ccccc1C#CCCCCCC#Cc1ccccc1C#CCO | 19.8 µM | 39.8 µM | 20.2 µM | 41.7 µM | 16.9 µM | 32.3 µM | – | – | – | – | – | – |
| CC12CCC(Br)C(C)(C)C1CC=C1C(=O)OCC1O2 (stereo unspecified) | – | 41 µM | – | 25.7 µM | – | 45 µM | – | – | – | – | – | – |
| C=C1C(=O)O[C@H]2[C@H]1CC/C(Cn1cc(-c3ccccc3C(F)(F)F)nn1)=C\CC[C@@]1(C)O[C@@H]21 | 2.4 µM | 8.28 µM | 1.42 µM | 2.78 µM | 1.7 µM | 4.71 µM | – | – | – | – | – | – |
| Oc1ccc2oc3ncc(Br)c(-c4ccccc4)c3c2c1 | 76.9 µM | > 100 µM | > 100 µM | > 100 µM | – | – | – | – | – | – | – | – |
| COc1ccccc1NC(=O)CC(=O)N/N=C/c1ccc(N(CCC#N)S(=O)(=O)c2ccccc2)cc1 | – | – | – | – | – | – | > 100 | > 100 | > 100 | – | – | – |
| COc1cccc(/C=N/C(/N=C/c2cccc(OC)c2O)c2cccc(OC)c2O)c1O | – | 71.9 µM | – | 78.7 µM | – | 63.9 µM | – | – | – | > 100 | – | – |
| O=c1c(-c2ccccc2)coc2cc(OC/C(=N/O)c3ccccc3)ccc12 | 29.8 µM | > 100 µM | 29 µM | 94.1 µM | 15.3 µM | 96.7 µM | – | – | – | – | – | – |
| N#CC1CC2(CCN1C(=O)c1ccccc1)OCCO2 (stereo unspecified) | – | – | – | – | – | – | > 100 | > 100 | > 100 | – | > 100 | – |
| COc1cccc(NC(=O)/C(Cc2nc3ccccc3nc2C)=N/NC(=O)C[n+]2ccccc2)c1 | – | – | – | – | – | – | > 100 | > 100 | > 100 | – | > 100 | – |
| Cc1ccc(O)c(NC(=O)c2ccc(CNc3ccnc(C(F)(F)F)c3)cc2)c1 | 3.48 µM | 28.4 µM | 12.8 µM | 39.4 µM | 1.74 µM | 17.7 µM | – | – | – | – | – | – |
| O=C1C(=Cc2c(O)cc(O)cc2O)C(=O)c2ccccc21 | – | – | – | 38.5 µM | – | – | > 55.2 | > 57.6 | 62.1 | – | > 100 | – |
| COc1cc(-c2nc(SCCC(C)C)nc(Nc3ccc(S(N)(=O)=O)cc3)c2C#N)cc(OC)c1OC | 2.12 µM | 6.3 µM | 3.47 µM | > 100 µM | 2.26 µM | > 100 µM | – | – | – | – | – | – |

| SMILES | GI50 (BT-549 breast) | TGI (BT-549 breast) | GI50 (DU-145 prostate) | TGI (DU-145 prostate) | GI50 (T-47D breast) | TGI (T-47D breast) | TGI (DLD-1 colon) [µM] | TGI (KM20L2 colon) [µM] | TGI (SNB-78 CNS) [µM] | TGI (MDA-N) [µM] | TGI (DMS 273 small cell lung) [µM] | TGI (RXF-631 renal) [µM] |
| --- | --- | --- | --- | --- | --- | --- | --- | --- | --- | --- | --- | --- |
| CCN(CC)c1ccc(C(=O)c2ccc(N(CC)CC)cc2)cc1 | 0.629 µM | 16.5 µM | 0.623 µM | 7.23 µM | 0.789 µM | > 100 µM | – | – | – | – | – | – |
| CSc1nc(SC)c2c(CO)c(Br)n(Cc3ccccc3)c2n1 | – | 62.4 µM | – | 77.8 µM | – | 74.2 µM | – | – | – | > 100 | – | – |
| CCOC(=O)c1[nH]c(COC(C)=O)c2c1CCCCCCCCCC2 | – | – | – | – | – | – | > 100 | > 100 | > 100 | – | > 100 | – |
| O=C(NC12CC3CC(CC(C3)C1)C2)C(=O)c1c[nH]c2ccccc12 | – | – | – | – | – | – | – | 19.7 | 40.3 | – | 29.6 | – |
| COC(=O)Nc1nc2ccc(Br)cc2[nH]1 | – | – | – | – | – | – | > 100 | 64.1 | > 100 | – | > 100 | – |
| COc1cc2c(cc1OC)C13CCN4CC5CCOC6CC(=O)N2C1C6C5CC43 (stereo unspecified) | – | > 100 µM | – | > 100 µM | – | > 100 µM | – | – | – | > 100 | – | – |
| CN(C)CCCNC(=O)c1cc(NC(=O)c2cc(NC(=O)CCNS(=O)(=O)c3ccc4c(c3)C(=O)c3ccccc3C4=O)cn2C)cn1C | > 100 µM | > 100 µM | – | – | > 100 µM | > 100 µM | – | – | – | – | – | – |
| Clc1ccc(C(n2cc(Br)cn2)n2cc(Br)cn2)cc1 | – | – | – | – | – | – | – | – | 44.4 | – | 36.8 | – |
| O=C1C(=O)c2cccnc2-c2ncccc21 | 0.242 µM | 1.19 µM | 0.239 µM | 1.28 µM | 0.205 µM | 0.461 µM | – | – | – | – | – | – |
| CCN1CCN(CC(=O)N2c3cccc4cccc(c34)N(C(=O)CN3CCN(CC)CC3)C2c2cn(-c3ccccc3)nc2-c2cccc([N+](=O)[O-])c2)CC1 | 1.67 µM | 3.24 µM | 1.96 µM | 4.03 µM | 1.66 µM | 3.7 µM | – | – | – | – | – | – |
| O=C1CCc2c(sc3[nH]c(=S)n(Cc4ccc(Cl)cc4)c(=O)c23)C1 | 0.363 µM | 3.03 µM | 2.47 µM | > 100 µM | 0.377 µM | 3.59 µM | – | – | – | – | – | – |
| CC(=O)C1=C(O)CC2CC3c4[nH]c5ccccc5c4CCN3CC2C1 (stereo unspecified) | – | – | – | – | – | – | > 100 | > 100 | > 100 | – | > 100 | – |
| Cc1cccc(NC(=O)c2cccc([N+](=O)[O-])c2O)c1C | – | > 100 µM | – | > 100 µM | – | > 100 µM | > 100 | 83.2 | > 100 | – | 97.7 | – |
| O=c1c2cc(Cl)ccc2sc2cccc(Cl)c12 | – | – | – | – | – | – | – | > 100 | > 100 | – | > 100 | > 100 |
| Cc1cn(-c2cc(NC(=O)c3ccc(C)c(Nc4nccc(-c5cccnc5)n4)c3)cc(C(F)(F)F)c2)cn1 | 5.38 µM and 3.57 µM | > 10 µM and 10 µM | 3.25 µM and 2.34 µM | > 10 µM and 4.47 µM | > 10 µM and 6.71 µM | > 10 µM and 32.3 µM | – | – | – | – | – | – |
